The text below walks through data of US20260327233A1, “Heteroaryl Compounds as Ligand Directed Degraders of IRAK4” (Celgene Corporation, priority 2023, published 2026).

Experiment [1] has as its target T1, IRAK4 (Homo sapiens, UniProt Q9NWZ3).
T1 sequence (Q9NWZ3 1-460): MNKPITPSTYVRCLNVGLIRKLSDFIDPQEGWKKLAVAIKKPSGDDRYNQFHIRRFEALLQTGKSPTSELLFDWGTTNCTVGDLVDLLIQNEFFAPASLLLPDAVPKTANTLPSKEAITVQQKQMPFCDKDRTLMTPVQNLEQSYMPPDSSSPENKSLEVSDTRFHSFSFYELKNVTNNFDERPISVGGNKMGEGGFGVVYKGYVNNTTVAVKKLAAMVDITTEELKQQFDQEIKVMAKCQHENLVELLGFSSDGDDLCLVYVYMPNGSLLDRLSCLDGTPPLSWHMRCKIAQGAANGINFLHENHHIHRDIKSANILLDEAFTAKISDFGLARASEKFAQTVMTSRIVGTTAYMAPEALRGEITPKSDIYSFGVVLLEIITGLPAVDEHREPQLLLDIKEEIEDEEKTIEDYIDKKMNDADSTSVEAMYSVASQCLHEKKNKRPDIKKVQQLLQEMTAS
The experiment is described as follows: IRAK4 PhosphoSens Biochemical Assay (BIOCHEM). The settings on record: IRAK4 1 nM; ATP and Sox conjugated peptide substrate AQT0326; pH 7.5; room temperature; 240 minutes. As for the experimental part: The PhosphoSens® biochemical assay was performed as described by the vendor (AssayQuant Technologies Inc. Marlborough, MA). A 1.25× stock solution of IRAK4 (PV4002, ThermoFisher Scientific, Waltham, MA) and a 5× stock solution of ATP and Sox conjugated peptide substrate, AQT0326 (CSKS-AQT0326B, AssayQuant Technologies), were prepared in 1× kinase reaction buffer consisting of 50 mM HEPES, pH 7.5, 0.01% Brij-35, 0.5 mM EGTA, 20 mM MgCl2 and 1 mM DTT. 10 μL of the ATP and substrate solution mix, for a final concentration of 200 µM ATP and […] peptide substrate, was added to a Corning 3574 384-well, white, non-binding surface microtiter plate containing 0.5 μL of serially diluted test compounds prepared in DMSO. The reactions were started with the addition of 40 μL of the enzyme solution, for a final IRAK4 concentration of 1 nM, and monitored every 71 seconds for 240 minutes at λEX 360/λEM 485 in a BioTek Synergy H4 plate reader (Agilent Technologies, Santa Clara, CA) at room temperature. The initial linear portions of the progress curves were fit according to a linear equation to yield the slopes and converted to % inhibition based on a value of 100% activity for the no inhibitor treated control. IC50 values of each compound were obtained by fitting the % inhibition-compound concentration curves using Dotmatics software (Dotmatics, Bishops Stortford, Hertfordshire, England),

Experiment [2] addresses T1, IRAK4. The experiment is described as follows: ALE THP1 HTRF (IRAK4 HTRF in THP1 cell lysate, Cisbio HTRF kit). More on the design: THP1 Homogeneous Time Resolved Fluorescence (ALE THP1 HTRF) Procedure; endogenous in cells; host or cells: THP1. The settings on record: anti-IRAK4 d2 / anti-IRAK4 k antibodies. It counts as cell-based. As for the experimental part:
Cell culture media was prepared in a tissue culture hood in a sterile environment by adding 10% FBS and 1% Penicillin Streptomycin to 500 mL no phenol red RPMI 1640 media. The media was filtered through a Nalgene Bottle Top Filter and stored at 4° C.
For Homogenous Time Resolved Fluorescence (HTRF) assays, a Cisbio HTRF kit was used, which included: Lysis Buffer #1 4×, Blocking Reagent #3 100×, 20× Antibody 1 (Anti-IRAK4 d2), 20× Antibody 2 (Anti-IRAK4 k), and Detection Buffer.
4× Lysis Buffer was stored at 4° C. For use as 1× Lysis buffer, the 4× solution was diluted with de-ionized water (distilled water, Gibco Cat. #15230279) and 100× Blocking Reagent in a 1:3:0.04 volume ratio.
20× Antibody Solution aliquots were stored at −80° C. and the Detection Buffer was stored at 4° C. For use as a 1× Antibody Solution, the 20× Antibody Solution aliquot was diluted with Detection Buffer in a 1:19 volume ratio.
Cells were lysed at room temperature for 45 min with shaking. A BCA protein assay was performed and normalization was conducted to the desired total protein concentration with 1× lysis buffer. Next, 1× Antibody Solutions were prepared by adding 380 μL Detection Buffer to 20 μL 20× Antibody Solution aliquots and mixing well. 1× Antibody Solutions were combined 1:1 and briefly vortexed. For control wells, 20 μL 1× anti IRAK4-k Antibody Solution was saved. The 384-well plate (ProxiPlate-384 Plus, Perkin Elmer Cat. #6008289) was loaded by adding 4 μL of the mixed Antibody Solution to empty wells using a single channel repeater. Using a multi-channel repeater, 16 μL lysate was added per well, and any bubbles that were formed were popped with 20 μL pipette tips and Kimwipe edges. In column 10, triplicates of each control were prepared. In wells A10, B10, and C10, buffer control was prepared by adding 16 μL Lysis Buffer and 4 μL Detection Buffer. In wells D10, E10, and F10, cryptate control was prepared by adding 16 μL Lysis Buffer, 2 μL Detection Buffer, and 2 μL 1× anti-IRAK4-k Antibody Solution. In wells G10, H10, and 110, a negative control was prepared by adding 16 μL Lysis Buffer and 4 μL mixed Antibody Solution. The plate was sealed with a clear seal and covered with an aluminum lid. The plate was spun down at 800 g for 5 min and incubated in the dark at room temperature overnight. The next day, the plate was spun down at 800 g for 5 min. The samples were analyzed by a plate reader (Envision, PerkinElmer) using the Desnor 384 HTRF program.

Counter-ions that a name gives are not always drawn. Some results are limits rather than exact numbers.

As to `CN(C[C@H]1CC[C@H](n2cc(NC(=O)c3cnn4ccc(N5C[C@H](N)C[C@@H](F)C5)nc34)c(C(F)F)n2)CC1)C1CCN(c2ccc3c(c2)CN(C2CCC(=O)NC2=O)C3=O)CC1` (stereo partly drawn) [Compound P-32, N-[3-(Difluoromethyl)-1-[4-[[[1-[2-(2,6-dioxo-3-piperidyl)-1-oxo-isoindolin-5-yl]-4-piperidyl]-methyl-amino]methyl]cyclohexyl]pyrazol-4-yl]-5-[(3r,5r)-3-amino-5-fluoro-1-piperidyl]pyrazolo[1,5-a]pyrimidine-3-carboxamide hydrochloride], the IC50 in experiment [1] is below 0.5 nM. Besides, in experiment [2], the EC50 turned out to be 6 nM and the “ALE THP1 HTRF YMIN” value is reported as 12%.

As to `N#Cc1nn([C@H]2CC[C@H](CN3CCC(c4ccc5c(c4)C(=O)N(C4CCC(=O)NC4=O)C5=O)CC3)CC2)cc1NC(=O)c1cnn2ccc(N3CCNCC3)nc12` (stereo partly drawn) [Compound P-17], in experiment [1], the IC50 amounted to 1.2 nM. Besides, in experiment [2], the EC50 is above 10000 nM and the “ALE THP1 HTRF YMIN” value is reported as above 95%.

As to `N#Cc1nn(C2CCC(C(=O)N3CCC(c4ccc5c(c4)C(=O)N(C4CCC(=O)NC4=O)C5=O)CC3)CC2)cc1NC(=O)c1cnn2ccc(N3CCNCC3)nc12` (stereo not drawn) [Compound P-12], the IC50 in experiment [1] amounted to 0.5 nM. Also, in experiment [2], the EC50 worked out at 4280 nM and the “ALE THP1 HTRF YMIN” value came out at 66%.

As to `Cc1c(NC(=O)c2cnn3ccc(N4C[C@H](N)C[C@@H](F)C4)nc23)cnn1[C@H]1CC[C@H](C(=O)NC2CCN(c3ccc4c(c3)C(=O)N(C3CCC(=O)NC3=O)C4=O)CC2)CC1` (stereo partly drawn) [Compound P-28], the IC50 in experiment [1] was above 1 nM. Moreover, in experiment [2], the concentration for a half-maximal effect (EC50) was above 10000 nM and the “ALE THP1 HTRF YMIN” value is above 95%.

As for `N#Cc1nn([C@H]2CC[C@H](C(=O)N3CCN(c4ccc5c(c4)C(=O)N(C4CCC(=O)NC4=O)C5=O)CC3)CC2)cc1NC(=O)c1cnn2ccc(N3CCNCC3)nc12` (stereo partly drawn) [Compound P-1, N-(3-cyano-1-((1r,4r)-4-(4-(2-(2,6-dioxopiperidin-3-yl)-1,3-dioxoisoindolin-5-yl)piperazine-1-carbonyl)cyclohexyl)-1H-pyrazol-4-yl)-5-(piperazin-1-yl)pyrazolo[1,5-a]pyrimidine-3-carboxamide hydrochloride], the IC50 in experiment [1] was determined as 8.6 nM. In experiment [2], the EC50 was 67 nM and the “ALE THP1 HTRF YMIN” value worked out at 30%.
